Results reported in article PMC5430599, “Antiplasmodial dihetarylthioethers target the coenzyme A synthesis pathway in Plasmodium falciparum erythrocytic stages” (Malaria Journal, 2017).
Read-outs that look alike come from different tables or passages of the source.

Columns and labels:
Assay type in all cases: cell-based
THP-1 cells = experiment: Cytotoxicity assay: human THP-1 cell line (Alamar Blue); settings: for IC50: Homo sapiens, THP-1, cytotoxicity, 48 h
Protocol: THP-1 cells were passed into fresh THP-1 culture medium. Cells were harvested by centrifugation (250×g, 10′, 4 °C), washed three times with RPMI 1640 medium, and diluted to 8 × 10^5 cells/mL. The cells were aliquoted in triplicate (125 μL/well) into 96-well flat-bottom plates containing compounds diluted in complete medium (125 μL/well, containing 0.01% DMSO). THP-1 cells in wells containing medium plus 0.01% DMSO served as negative controls. Cells were incubated with test compounds at 37 °C and 5% CO2 for 48 h prior to the addition of 10% Alamar Blue (25 μL/well). After an additional 4 h the fluorescence was read (λex = 544 nm, λem = 590 nm) using a microplate reader (Fluoroskan Ascent FL, Thermo Fisher Scientific, Waltham, MA, USA). Results were analysed using Prism 4 (GraphPad Software Inc., La Jolla, CA, USA). Experiments were performed in triplicate and were repeated at least twice.

[1] = system: human embryonic kidney (HEK-293) cells; experiment: Cytotoxicity assay: human HEK-293 cell line (resazurin); settings: for IC50: Homo sapiens, HEK293, cytotoxicity, 72 h, read-out: IC50 [µM], HEK-293
Protocol: Cytotoxicity against human embryonic kidney (HEK-293) cells was assessed as previously described. […] Cells were detached using Accutase treatment, then seeded into black clear-bottom 384-wells fluorescence microplates (Greiner), at a cell density of 44,000 cells/mL in 45 µL/well, using a Benchtop liquid dispenser (Thermo Fisher Multidrop). After seeding, the cells were brought back to the incubator and allowed to settle and reattach overnight. […] Plates were incubated at the standard condition above for 72 h. At the end of the incubation the medium in each well was replaced with 1 mM resazurin, and the plates were read using a multilabel microplate reader (PerkinElmer Envision) at 530 nm excitation and 595 nm emission wavelengths after a further 6 h incubation. Inhibition data was generated using Office Excel 2013 (Microsoft). IC50 values were calculated by fitting a four-parameter nonlinear regression model using Prism v.6.0 (Graphpad Software Inc., La Jolla, CA, USA).

[2] = system: Plasmodium falciparum parasites (3D7 strain); experiment: Coenzyme A rescue assay (imaging-based growth inhibition, with or without 0.8 mM CoA); settings: for IC50-ratio (CoA/solvent): IC50 with 0.8 mM CoA / IC50 solvent, threshold 5× significant; for IC50: Plasmodium falciparum; for IC50 shift with CoA supplementation: IC50 CoA / IC50 solvent
Protocol: Plasmodium falciparum parasites (3D7 strain) were grown in RPMI 1640 supplemented with 25 mM HEPES, 5 mg/mL Albumax II, and 0.37 mM hypoxanthine. Parasites were subjected to two rounds of sorbitol synchronization before undergoing compound treatment. Ring stage parasites were exposed to the experimental compounds alone, or in combination with 0.8 mM coenzyme A (CoA) in 384-wells imaging microplates (CellCarrier, PerkinElmer), as previously described. […] Puromycin 5 µM and untreated solvent were used as in-plate positive and negative controls, respectively. Samples were dissolved in DMSO to a final assay DMSO concentration of 0.4%. […] All sample and control wells contained the same final amounts of solvents. Plates were incubated for 72 h at 90% N2, 5% CO2, 5% O2, then parasites were stained with 2-(4-amidinophenyl)-1H-indole-6-carboxamidine (DAPI), and imaged using an Opera QEHS micro-plate confocal imaging system (PerkinElmer) with 405 nm excitation and 450/50 emission filter, using a 20× water immersion objective. Images were analysed as previously described, to obtain normalized % inhibition data, which were then used to calculate IC50 values, through a four parameter logistic curve fitting in GraphPad Prism v.6. The experiment was carried out in two independent biological replicates, each consisting of two technical replicates. Dose–response curves are illustrated in the Additional file 4.

[3] = 3D7, 72 h, 0.8 mM CoA (rescue), 72 h, read-out: IC50 [µM], Pf3D7 + 0.8 mM CoA
[4] = 3D7, 72 h, no CoA (solvent, non-rescue), 72 h, read-out: IC50 [µM], Pf3D7 + solvent

Compound: c1coc(-c2nnc(Sc3ncnc4sccc34)o2)c1 [Compound 3a]
- IC50 (THP-1 cells): 6.13 µM
- IC50 [1]: > 10 µM
- IC50-ratio (CoA/solvent) [2]: 16.3
- IC50 [2, 3]: 4.61 ± 0.15 µM
- IC50 [2, 4]: 0.283 ± 0.073 µM

Compound: Cn1ccnc1Sc1ncnc2sccc12 [Compound 8c]
- IC50 (THP-1 cells): > 300 µM
- IC50 [1]: > 40 µM
- IC50 [2, 3]: 2.31 ± 0.17 µM
- IC50 [2, 4]: 1.3 µM

Compound: c1csc(Sc2ncnc3sccc23)n1 [Compound 8d]
- IC50 (THP-1 cells): 27.5 µM
- IC50 [1]: > 10 µM
- IC50 shift with CoA supplementation [2]: 67 fold
- IC50-ratio (CoA/solvent) [2]: 67.3
- IC50 [2, 3]: 2.6 ± 0.4 µM
- IC50 [2, 4]: 0.039 ± 0.001 µM

Compound: c1coc(Sc2ncnc3sccc23)n1 [Compound 8e]
- IC50 (THP-1 cells): 33.6 µM
- selectivity THP-1 vs 3D7 parasites (THP-1 cells; IC50 THP-1 / IC50 3D7): 450 fold
- selectivity toward human cell lines (THP-1 cells; human cell lines vs 3D7): > 100 fold
- IC50 [1]: > 10 µM
- selectivity HEK-293 vs 3D7 parasites ([1]; IC50 HEK-293 / IC50 3D7): > 133 fold
- IC50 shift with CoA supplementation [2]: 34 fold
- IC50-ratio (CoA/solvent) [2]: 34.5
- IC50 [2, 3]: 2.6 ± 0.4 µM
- IC50 [2, 4]: 0.0747 ± 0.021 µM
- IC50 ([2]; 3D7, no CoA, read-out: IC50, 3D7 strain): 0.075 µM
- fold higher antiplasmodial activity ([2]; compared to 8c): 17 fold

Compound: Nc1nnc(Sc2ncnc3sccc23)s1 [Compound 8f]
- IC50 (THP-1 cells): 11 µM
- IC50 [1]: > 4 µM
- IC50 shift with CoA supplementation [2]: 117 fold
- IC50-ratio (CoA/solvent) [2]: 117
- IC50 [2, 3]: > 11 µM
- IC50 [2, 4]: 0.096 ± 0.006 µM

Compound: c1ccc2[nH]c(Sc3ncnc4sccc34)nc2c1 [Compound 8g]
- IC50 (THP-1 cells): 16.5 µM
- IC50 [1]: > 10 µM
- IC50-ratio (CoA/solvent) [2]: 7.23
- IC50 [2, 3]: 0.531 ± 0.007 µM
- IC50 [2, 4]: 0.0734 ± 0.0022 µM

Compound: c1cnc2[nH]c(Sc3ncnc4sccc34)nc2c1 [Compound 8k]
- IC50 (THP-1 cells): 28 µM
- IC50 [1]: > 20 µM
- IC50-ratio (CoA/solvent) [2]: 7.11
- IC50 [2, 3]: 1.06 ± 0.03 µM
- IC50 [2, 4]: 0.149 ± 0.021 µM
